# Laboratory results from patent US20250115590A1, “MATRIX METALLOPROTEINASE (MMP) INHIBITORS AND METHODS OF USE THEREOF” (Foresee Pharmaceuticals USA, Inc., priority 2018, published 2025).
# Like-named read-outs stand apart in the source and are kept apart here.
# What was measured:
# Assay type in all cases: biochemical
# [1] = molecular target: recombinant human MMP-12 catalytic domain (Homo sapiens (Human), UniProt P39900); assay: MMP-12 inhibitory assay (fluorogenic substrate cleavage)
# Method: (§1) The inhibitory effect of compounds on the rate of cleaving fluorogenic MMP substrate (Enzo, BML-P128) by recombinant human MMP-12 catalytic domain (Enzo, BML-SE138) was carried out by methods known in the art. Briefly, to each well of a 96-well black opaque plate, all the reagents were sequentially added by pipetting, and the final reaction contained 4 nM of recombinant human MMP-12 catalytic domain, […] of fluorogenic MMP substrate, and various concentrations (0.15 nM to 10,000 nM) of tested compound dilutions in HEPES buffer (pH 7.5) containing 10 mM of CaCl2, 0.01% Brij® 35 (polyoxyethylene (23) lauryl ether), and 0.1 mg/ml of BSA.
# (§2) The enzyme and compounds were pre-incubated on a shaker to mix in wells. After an hour of mixing, fluorogenic substrate was added to each well. Reaction without enzyme was used as a blank control in the plate. The plate was then fed into a plate reader to measure fluorescence intensity at Excitation/Emission wavelengths of 340 nm/440 nm every 10 mins for at least 1 hour at 37° C. The IC50 of each compound in MMP-12 inhibition was determined by using a readout obtained at time point 30 minutes.
# recombinant human MMP-3 = recombinant human MMP-3 (Homo sapiens (Human), UniProt P08254); assay: MMP selectivity assay, MMP-3; conditions: Table 2 selectivity profile; read-out: MMP-3 Activity (IC50 class)
# Sequence of recombinant human MMP-3 (P08254 100-477): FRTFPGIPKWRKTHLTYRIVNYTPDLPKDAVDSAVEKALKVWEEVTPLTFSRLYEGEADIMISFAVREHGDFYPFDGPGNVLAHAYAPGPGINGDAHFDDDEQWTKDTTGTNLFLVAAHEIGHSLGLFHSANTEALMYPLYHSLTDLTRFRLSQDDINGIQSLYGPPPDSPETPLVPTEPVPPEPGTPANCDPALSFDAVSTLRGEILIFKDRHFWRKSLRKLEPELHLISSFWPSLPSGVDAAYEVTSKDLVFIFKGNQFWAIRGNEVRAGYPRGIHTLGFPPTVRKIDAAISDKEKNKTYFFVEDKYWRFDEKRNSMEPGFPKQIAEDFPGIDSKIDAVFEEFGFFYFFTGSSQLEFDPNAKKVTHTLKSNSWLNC
# Method: as §1, §2
# (§3) The MMP selectivity assay was performed by using other recombinant human MMPs, including MMP-1, MMP-2, MMP-3, MMP-7, MMP-8, MMP-9, MMP-10, MMP-13, and MMP-14. The IC50 of the compounds for the other recombinant human MMPs was determined as described above in Example 1, and are shown in Table 2.
# recombinant human MMP-9 = recombinant human MMP-9 (Homo sapiens (Human), UniProt P14780); assay: MMP selectivity assay, MMP-9; conditions: Table 2 selectivity profile; read-out: MMP-9 Activity (IC50 class)
# Sequence of recombinant human MMP-9 (P14780 94-707): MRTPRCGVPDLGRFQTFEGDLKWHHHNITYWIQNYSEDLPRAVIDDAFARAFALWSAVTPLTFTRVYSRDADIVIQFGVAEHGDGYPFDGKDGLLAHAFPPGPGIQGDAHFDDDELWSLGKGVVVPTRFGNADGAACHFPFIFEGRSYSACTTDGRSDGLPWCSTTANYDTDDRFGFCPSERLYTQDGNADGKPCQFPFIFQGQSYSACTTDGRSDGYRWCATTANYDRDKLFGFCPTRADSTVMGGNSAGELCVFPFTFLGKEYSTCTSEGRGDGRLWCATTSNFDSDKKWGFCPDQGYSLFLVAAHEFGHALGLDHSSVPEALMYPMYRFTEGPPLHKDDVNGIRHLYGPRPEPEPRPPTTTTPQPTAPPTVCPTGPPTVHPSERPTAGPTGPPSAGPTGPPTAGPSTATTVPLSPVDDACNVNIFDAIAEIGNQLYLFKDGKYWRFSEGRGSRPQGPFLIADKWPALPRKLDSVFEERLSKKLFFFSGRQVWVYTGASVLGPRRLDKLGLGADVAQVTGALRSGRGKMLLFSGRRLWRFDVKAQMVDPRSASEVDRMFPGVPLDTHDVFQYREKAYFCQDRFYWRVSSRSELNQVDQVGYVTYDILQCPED
# Method: as §1, §2, §3
# recombinant human MMP-10 = recombinant human MMP-10 (Homo sapiens (Human), UniProt P09238); assay: MMP selectivity assay, MMP-10; conditions: Table 2 selectivity profile; read-out: MMP-10 Activity (IC50 class)
# Sequence of recombinant human MMP-10 (P09238 99-476): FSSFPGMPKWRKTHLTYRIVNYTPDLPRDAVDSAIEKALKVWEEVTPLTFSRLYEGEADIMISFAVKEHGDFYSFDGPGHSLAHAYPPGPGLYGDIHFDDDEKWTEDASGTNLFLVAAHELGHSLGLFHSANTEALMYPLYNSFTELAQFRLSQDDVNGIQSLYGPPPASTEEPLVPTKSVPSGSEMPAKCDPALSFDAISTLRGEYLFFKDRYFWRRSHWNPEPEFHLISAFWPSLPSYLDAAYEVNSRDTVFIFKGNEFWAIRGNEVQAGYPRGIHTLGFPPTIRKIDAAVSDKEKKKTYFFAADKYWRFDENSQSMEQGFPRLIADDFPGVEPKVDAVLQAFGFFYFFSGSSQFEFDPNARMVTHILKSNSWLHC
# Method: as §1, §2, §3
# recombinant human MMP-14 = recombinant human MMP-14 (Homo sapiens (Human), UniProt P50281); assay: MMP selectivity assay, MMP-14; conditions: Table 2 selectivity profile; read-out: MMP-14 Activity (IC50 class)
# Method: as §1, §2, §3
# recombinant human MMP-2 = recombinant human MMP-2 (Homo sapiens (Human), UniProt P08253); assay: MMP selectivity assay, MMP-2; conditions: Table 2 selectivity profile; read-out: MMP-2 Activity (IC50 class)
# Sequence of recombinant human MMP-2 (P08253 110-660): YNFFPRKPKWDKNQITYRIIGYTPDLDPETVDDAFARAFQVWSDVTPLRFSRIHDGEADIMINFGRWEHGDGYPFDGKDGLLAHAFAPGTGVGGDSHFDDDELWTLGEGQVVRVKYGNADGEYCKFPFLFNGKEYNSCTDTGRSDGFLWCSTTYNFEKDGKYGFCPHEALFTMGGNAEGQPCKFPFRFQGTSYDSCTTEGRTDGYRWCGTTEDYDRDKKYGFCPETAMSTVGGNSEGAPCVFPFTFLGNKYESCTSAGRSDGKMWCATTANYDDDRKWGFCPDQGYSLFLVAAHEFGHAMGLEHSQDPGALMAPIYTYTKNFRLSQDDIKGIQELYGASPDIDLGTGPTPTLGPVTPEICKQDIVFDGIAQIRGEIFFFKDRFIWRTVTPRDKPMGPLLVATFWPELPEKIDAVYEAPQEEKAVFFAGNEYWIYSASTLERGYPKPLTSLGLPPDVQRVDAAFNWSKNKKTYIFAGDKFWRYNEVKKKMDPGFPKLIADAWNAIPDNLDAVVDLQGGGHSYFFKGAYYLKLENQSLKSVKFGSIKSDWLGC
# Method: as §1, §2, §3
# recombinant human MMP-13 = recombinant human MMP-13 (Homo sapiens (Human), UniProt P45452); assay: MMP selectivity assay, MMP-13; conditions: Table 2 selectivity profile; read-out: MMP-13 Activity (IC50 class)
# Method: as §1, §2, §3
# recombinant human MMP-8 = recombinant human MMP-8 (Homo sapiens (Human), UniProt P22894); assay: MMP selectivity assay, MMP-8; conditions: Table 2 selectivity profile; read-out: MMP-8 Activity (IC50 class)
# Sequence of recombinant human MMP-8 (P22894 101-467): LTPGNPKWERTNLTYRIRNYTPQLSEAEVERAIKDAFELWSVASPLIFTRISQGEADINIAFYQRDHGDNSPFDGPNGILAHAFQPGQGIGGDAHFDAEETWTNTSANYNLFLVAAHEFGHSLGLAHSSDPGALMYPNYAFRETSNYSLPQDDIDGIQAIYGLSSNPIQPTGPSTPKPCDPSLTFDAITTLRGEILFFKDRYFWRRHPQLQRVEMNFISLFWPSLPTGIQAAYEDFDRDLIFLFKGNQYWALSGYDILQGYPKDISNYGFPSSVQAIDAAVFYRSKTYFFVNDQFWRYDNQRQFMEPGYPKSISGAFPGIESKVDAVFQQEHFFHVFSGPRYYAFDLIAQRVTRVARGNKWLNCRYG
# Method: as §1, §2, §3
# recombinant human MMP-7 = recombinant human MMP-7 (Homo sapiens (Human), UniProt P09237); assay: MMP selectivity assay, MMP-7; conditions: Table 2 selectivity profile; read-out: MMP-7 Activity (IC50 class)
# Sequence of recombinant human MMP-7 (P09237 95-267): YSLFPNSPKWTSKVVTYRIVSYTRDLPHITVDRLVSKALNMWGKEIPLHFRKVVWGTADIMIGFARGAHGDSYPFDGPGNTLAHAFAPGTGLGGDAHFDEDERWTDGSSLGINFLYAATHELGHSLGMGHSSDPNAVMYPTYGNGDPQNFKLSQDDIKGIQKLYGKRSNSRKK
# Method: as §1
# as §2, with “Reaction without enzyme was used as a blank control in the plate.” left out
# as §3
# [2] = Table 2 selectivity profile, read-out: MMP-12 Activity (IC50 class)
# [3] = readout at 30 minutes, 37° C., pH 7.5, Table 1, read-out: MMP-12 IC50
# Sequence of recombinant human MMP-12 catalytic domain (P39900 106-268): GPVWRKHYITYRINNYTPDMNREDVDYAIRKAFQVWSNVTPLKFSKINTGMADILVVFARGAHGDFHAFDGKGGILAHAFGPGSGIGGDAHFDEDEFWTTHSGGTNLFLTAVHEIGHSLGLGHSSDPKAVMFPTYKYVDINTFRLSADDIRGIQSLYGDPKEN
Compound,"IC50 [1, 2]","IC50 [1, 3]",IC50 (recombinant human MMP-9),IC50 (recombinant human MMP-10),IC50 (recombinant human MMP-2),also measured
Cc1cc(COc2ccc(Sc3ncn(C)c3C3NC(=O)NC3=O)cc2)ccn1 (stereo not shown) [OC-13],< 10 nM,< 10 nM,> 1000 nM,> 1000 nM,–,IC50 (recombinant human MMP-3): > 1000 nM
O=C1NC(=O)C(c2cnccc2Sc2ccc(OCc3cccc(CO)c3)cc2)N1 (stereo not shown) [PC-8],< 10 nM,< 10 nM,–,–,> 1000 nM,IC50 (recombinant human MMP-3): > 1000 nM; IC50 (recombinant human MMP-13): > 1000 nM
O=C1NC(=O)C(c2ccncc2Sc2ccc(OCc3ccccc3CO)cc2)N1 (stereo not shown) [PC-12],< 10 nM,< 10 nM,> 1000 nM,> 1000 nM,> 1000 nM,IC50 (recombinant human MMP-8): > 1000 nM
Cc1cc(COc2ccc(Sc3cnccc3C3NC(=O)NC3=O)cc2)ccn1 (stereo not shown) [PC-18],–,< 10 nM,–,–,–,–
O=C1NC(=O)C(c2cnccc2Sc2ccc(OCc3ccnc(C(=O)O)c3)cc2)N1 (stereo not shown) [PC-20],–,> 1000 nM,–,–,–,–
O=C1NC(=O)C(c2cnccc2Sc2ccc(OCc3cncc(C(=O)O)c3)cc2)N1 (stereo not shown) [PC-21],–,> 1000 nM,–,–,–,–
CCC1(c2cnccc2Sc2ccc(OCc3cccc(C)c3)cc2)NC(=O)NC1=O (stereo not shown) [PC-22],< 10 nM,< 10 nM,> 1000 nM,> 1000 nM,> 1000 nM,IC50 (recombinant human MMP-8): > 1000 nM; IC50 (recombinant human MMP-14): > 1000 nM
O=C1NC(=O)C(c2ccncc2Sc2ccc(OCc3cncc(C(=O)O)c3)cc2)N1 (stereo not shown) [PC-24],–,> 1000 nM,–,–,–,–
Cc1cccc(OCc2ccc(Sc3ccncc3C3NC(=O)NC3=O)cc2)c1 (stereo not shown) [PC-43],–,> 1000 nM,–,–,–,–
Cc1cc(COc2ccc(Sc3ccncc3C3NC(=O)NC3=O)cc2C)ccn1 (stereo not shown) [PC-48],< 10 nM,< 10 nM,> 1000 nM,> 1000 nM,> 1000 nM,IC50 (recombinant human MMP-3): > 1000 nM; IC50 (recombinant human MMP-8): > 1000 nM
Cc1cc(COc2ccc(Sc3ccncc3C3NC(=O)NC3=O)c(F)c2)ccn1 (stereo not shown) [PC-50],< 10 nM,< 10 nM,> 1000 nM,> 1000 nM,–,IC50 (recombinant human MMP-14): > 1000 nM
CCC1(c2cnccc2Sc2ccc(OCc3ccnc(C)c3)cc2)NC(=O)NC1=O (stereo not shown) [PC-63],–,< 10 nM,–,–,–,–
O=C1NC(=O)C(c2sccc2Sc2ccc(OCc3cccc(CO)c3)cc2)N1 (stereo not shown) [TC4],< 10 nM,< 10 nM,> 1000 nM,> 1000 nM,> 1000 nM,IC50 (recombinant human MMP-13): > 1000 nM; IC50 (recombinant human MMP-14): > 1000 nM
O=C1NC(=O)C(c2sccc2Sc2ccc(OCc3ccccc3CO)cc2)N1 (stereo not shown) [TC5],< 10 nM,< 10 nM,> 1000 nM,> 1000 nM,> 1000 nM,IC50 (recombinant human MMP-3): > 1000 nM; IC50 (recombinant human MMP-8): > 1000 nM
O=C1NC(=O)C(c2sccc2Sc2ccc(OCc3cccc(O)c3)cc2)N1 (stereo not shown) [TC7],–,< 10 nM,–,–,–,–

# Now from value to compound, other results behind:
"IC50 [1, 2]","IC50 [1, 3]",IC50 (recombinant human MMP-9),IC50 (recombinant human MMP-10),IC50 (recombinant human MMP-2),Compound,also measured
< 10 nM,< 10 nM,> 1000 nM,> 1000 nM,–,Cc1cc(COc2ccc(Sc3ncoc3C3NC(=O)NC3=O)cc2)ccn1 (stereo not shown) [OC-7],IC50 (recombinant human MMP-3): > 1000 nM
–,> 1000 nM,–,–,–,Cc1cc(COc2ccc(Sc3ocnc3C3NC(=O)NC3=O)cc2)ccn1 (stereo not shown) [OC-11],–
< 10 nM,< 10 nM,> 1000 nM,> 1000 nM,–,Cc1cc(COc2ccc(Sc3cnn(C)c3C3NC(=O)NC3=O)cc2)ccn1 (stereo not shown) [OC-12],IC50 (recombinant human MMP-3): > 1000 nM; IC50 (recombinant human MMP-14): > 1000 nM
< 10 nM,< 10 nM,> 1000 nM,–,> 1000 nM,O=C1NC(=O)C(c2cnccc2Sc2ccc(OCc3cccc(O)c3)cc2)N1 (stereo not shown) [PC-10],IC50 (recombinant human MMP-3): > 1000 nM; IC50 (recombinant human MMP-8): > 1000 nM; IC50 (recombinant human MMP-13): > 1000 nM
< 10 nM,< 10 nM,> 1000 nM,> 1000 nM,> 1000 nM,O=C1NC(=O)C(c2ccncc2Sc2ccc(OCc3cccc(CO)c3)cc2)N1 (stereo not shown) [PC-13],IC50 (recombinant human MMP-8): > 1000 nM; IC50 (recombinant human MMP-13): > 1000 nM
–,< 10 nM,–,–,–,O=C1NC(=O)C(c2ccncc2Sc2ccc(OCc3cccc(O)c3)cc2)N1 (stereo not shown) [PC-15],–
< 10 nM,< 10 nM,> 1000 nM,> 1000 nM,> 1000 nM,NC(=O)c1cccc(COc2ccc(Sc3ccncc3C3NC(=O)NC3=O)cc2)c1 (stereo not shown) [PC-28],IC50 (recombinant human MMP-3): > 1000 nM; IC50 (recombinant human MMP-14): > 1000 nM
–,> 1000 nM,–,–,–,NC(=O)c1ccncc1COc1ccc(Sc2ccncc2C2NC(=O)NC2=O)cc1 (stereo not shown) [PC-38],–
–,< 10 nM,–,–,–,O=C1NC(=O)C(c2cnccc2Sc2ccc(OCc3ccnc(CO)c3)cc2)N1 (stereo not shown) [PC-40],–
–,> 1000 nM,–,–,–,Cc1cc(COc2ccc(Sc3ccncc3C3(C)C(=O)N(C)C(=O)N3C)cc2)ccn1 (stereo not shown) [PC-46],–
–,> 1000 nM,–,–,–,O=C1NC(=O)C(c2ccncc2Sc2ccc(OCc3cncc(CO)c3)cc2)N1 (stereo not shown) [PC-47],–
< 10 nM,< 10 nM,> 1000 nM,> 1000 nM,> 1000 nM,Cc1cc(COc2ccc(Sc3ccncc3C3NC(=O)NC3=O)c(Cl)c2)ccn1 (stereo not shown) [PC-51],IC50 (recombinant human MMP-3): > 1000 nM; IC50 (recombinant human MMP-7): > 1000 nM; IC50 (recombinant human MMP-14): > 1000 nM
–,> 1000 nM,–,–,–,Cc1cc(COc2ccc(Sc3ccncc3C3C(=O)N(C)C(=O)N3C)cc2)ccn1 (stereo not shown) [PC-54],–
–,100 to 1000 nM,–,–,–,NC(=O)c1cc(COc2ccc(Sc3cnccc3C3NC(=O)NC3=O)cc2)ccn1 (stereo not shown) [PC-59],–
–,< 10 nM,–,–,–,CCC1(c2ccncc2Sc2ccc(OCc3ccnc(C)c3)cc2)NC(=O)NC1=O (stereo not shown) [PC-64],–
–,< 10 nM,–,–,–,O=C1NC(=O)C(c2sccc2Sc2ccc(OCc3ccc(CO)cc3)cc2)N1 (stereo not shown) [TC6],–
< 10 nM,< 10 nM,–,–,–,Cc1cc(COc2ccc(Sc3ccsc3C3NC(=O)NC3=O)cc2)ccn1 (stereo not shown) [TC8],IC50 (recombinant human MMP-7): > 1000 nM
